This assay has as its target T1, OrnR (STM OrnR, ornithine racemase) (Salmonella enterica, UniProt Q8ZNC6).
T1 sequence (Q8ZNC6 1-367): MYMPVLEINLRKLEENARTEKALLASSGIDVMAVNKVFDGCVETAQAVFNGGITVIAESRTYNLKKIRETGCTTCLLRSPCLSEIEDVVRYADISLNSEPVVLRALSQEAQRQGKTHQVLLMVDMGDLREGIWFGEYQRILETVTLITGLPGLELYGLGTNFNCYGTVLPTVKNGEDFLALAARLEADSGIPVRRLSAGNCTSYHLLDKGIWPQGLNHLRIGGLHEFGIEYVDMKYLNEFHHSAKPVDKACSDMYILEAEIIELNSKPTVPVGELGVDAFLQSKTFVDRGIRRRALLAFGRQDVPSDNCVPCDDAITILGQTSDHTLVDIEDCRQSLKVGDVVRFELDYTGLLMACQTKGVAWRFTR
Conditions: read-out: S0.5; D to L direction, pH 9.2, 37 °C, 0.8 mM PLP; sigmoid, Hill fit.

Each structure is given as a SMILES string.

Take `NCCC[C@@H](N)C(=O)O` [D-ornithine]: the Km was determined as 12.8 ± 2.7 mM.
